Tested on: Staphylococcus aureus (g+) LMG 8064
Assay: poison plate assay (bacteria)
Format: cell-based
Conditions: LMG8064, 120 h, ppm total active ingredient, Tryptose Agar, 27° C., 70% relative humidity, growth evaluated after five days, ratio % (I) + % (II-a), read-out: MIC-values (minimum inhibitory concentration) in ppm
Text: When the Synergy Index is greater than 1.0, antagonism is indicated. When the SI is equal to 1.0, additivity is indicated.

## C=CCOC(Cn1ccnc1)c1ccc(Cl)cc1Cl (stereo not shown) [100 + 0]
  MIC: 25 µg/mL

Source: patent publication US8921403B2, “Combinations of imazalil and hydroxypyridones” (Janssen Pharmaceutica, NV, priority 2007, dated 2014)
